Values of other authors as cited in patent US20230056424A1, “PREVENTION OF THE CONVERSION OF PHARMACEUTICAL AGENTS INTO TOXIC N-NITROSAMINE COMPOUNDS” (ALFRED E. TIEFENBACHER (GMBH & CO. KG), priority 2021, published 2023).

Conditions: standards established by the health authorities

Compound: O=NN1C[C@H]2C[C@@H](C1)c1cc3nccnc3cc12 [N-nitroso-varenicline]
- maximum allowed daily intake: 37 ng/day
